The target of one data set is T1, human GLP-1 R (Homo sapiens, UniProt P43220).
T1 construct: expressed in transfected cells
Nature of the data set: cAMP signal activation in human GLP1R cells (hGLP1R-U2OS, HTRF). Format: cell-based. On the procedure:
A cell line stably expressing human GLP1 R (hGLP1R-U2OS) was used in this experiment. The cells were cultured in a growth medium (complete medium, DMEM+10% FBS+500 μg/mL G418 (Promega)) in an incubator at 37° C. and has 5% CO2 saturated humidity.
hGLP1R-U2OS was inoculated into 384-well plate with 1.0×10^4 cells/well (5 μL) (cell working solution: DMEM+0.1% BSA+1 mM IBMX (available from Bide Pharmatech Ltd.)), and was placed in an incubator at 37° C. and held for 30 min. The compounds to be tested were diluted stage-by-stage with Stimulation Buffer 1 (1×) in the kit, and the diluted compounds were added to the culture plate with 5 μL/well. They were incubated in an incubator at 37° C. for 30 min. Then, 5 μL/well of cAMP-d2 prepared with Lysis & Detection buffer and 5 μL/well of Anti CAMP-Cryptate working solution were added successively, and they were incubated at room temperature for 60 min before detection.
The ratio of signal emitted by donor to […] in each well was calculated as follows: HTRF rate=signal at 665 nm/signal at 620 nm×104, and then the HTRF rate was converted into a reaction rate (%). The concentration-response curve of each Example compound was created by a 4-parameter equation as Y=Bottom+(Top−Bottom)/(1+10^((Log IC50−X)*HillSlope)), and the half maximal (50%) effective concentration (EC50) was calculated.
On the technique in general: Time-resolved FRET reads energy transfer from a long-lived donor to a nearby acceptor.

Data set [1] is described as follows: Pharmacokinetic study on rat. As to conditions: for F: 5 mg/kg p.o vs 1 mg/kg i.v; for AUC(0-t) / Cmax / clearance / half-life: male, Sprague-Dawley (SD), plasma. The data set is classed as in vivo, SD rats. The source says: • SD rats: male, 180-250 g, purchased from Beijing Vital River Laboratory Animal Technology Co., Ltd. • Reagents: DMSO (dimethyl sulfoxide), PEG-400 (polyethylene glycol 400), physiological saline, heparin, acetonitrile, formic acid, and propranolol (internal standard), all of which are commercially available. • Instruments: Thermo Fisher Scientific LC-MS (U300 UPLC, TSQ QUANTUMN ULTRA triple quadrupole mass spectrometer).
A compound was weighed and dissolved in a DMSO-PEG-400-physiological saline (5:60:35, v/v/v) system. After the rats were administered with the compound intravenously or by gavage, 200 μL of venous blood samples were collected at 15 min, 30 min, 1 h, 2 h, 5 h, 7 h, and 24 h (for i.v. group an additional collection was performed at 5 min) in heparinized EP tubes respectively, which were centrifuged at 12,000 rpm for 2 min, and the plasma was frozen at −80° C. for further testing. A certain amount of the test substance was precisely weighed and dissolved in DMSO to obtain a stock solution with a concentration of 2 mg/mL. An appropriate amount of the stock solution of the compound was accurately pipetted and diluted with acetonitrile to prepare a standard series solution. 20 μL of each of the above standard series solution was accurately pipetted, added with 180 μL of blank plasma, and vortexed mixed to prepare plasma samples corresponding to plasma concentrations of 0.3, 1, 3, 10, 30, 100, 300, 1000, 3000 ng/mL. Two-sample analysis was performed for each concentration to establish a standard curve. 30 μL of plasma (for samples that are obtained at 5 min, 15 min, 30 min, and 1 h after intravenous administration, the plasma were diluted 10 times) was taken, added with 200 μL of a solution of internal standard propranolol in acetonitrile (50 ng/ml), and vortexed mixed. The mixture was then added with 100 μL of pure water, and vortexed and mixed again. It was centrifuged at 4000 rpm for 5 min, and the supernatant was collected for LC-MS analysis. LC-MS detection conditions were as follows. • Chromatographic column: Thermo Scientific HYPERSIL GOLD C-18 UPLC column, 100*2.1 mm, 1.7 μm. • Mobile phase: water (with 0.1% formic acid)-acetonitrile; gradient elution was performed according to the table below.
After blood drug concentrations was detected by LC-MS, WinNonlin 6.1 software was used to calculate pharmacokinetic parameters based on non-compartmental model.

The target in data set [2] is T2, hERG potassium ion channel (Homo sapiens, UniProt Q12809).
T2 construct: expressed in transfected cells
T2 sequence (Q12809 whole entry): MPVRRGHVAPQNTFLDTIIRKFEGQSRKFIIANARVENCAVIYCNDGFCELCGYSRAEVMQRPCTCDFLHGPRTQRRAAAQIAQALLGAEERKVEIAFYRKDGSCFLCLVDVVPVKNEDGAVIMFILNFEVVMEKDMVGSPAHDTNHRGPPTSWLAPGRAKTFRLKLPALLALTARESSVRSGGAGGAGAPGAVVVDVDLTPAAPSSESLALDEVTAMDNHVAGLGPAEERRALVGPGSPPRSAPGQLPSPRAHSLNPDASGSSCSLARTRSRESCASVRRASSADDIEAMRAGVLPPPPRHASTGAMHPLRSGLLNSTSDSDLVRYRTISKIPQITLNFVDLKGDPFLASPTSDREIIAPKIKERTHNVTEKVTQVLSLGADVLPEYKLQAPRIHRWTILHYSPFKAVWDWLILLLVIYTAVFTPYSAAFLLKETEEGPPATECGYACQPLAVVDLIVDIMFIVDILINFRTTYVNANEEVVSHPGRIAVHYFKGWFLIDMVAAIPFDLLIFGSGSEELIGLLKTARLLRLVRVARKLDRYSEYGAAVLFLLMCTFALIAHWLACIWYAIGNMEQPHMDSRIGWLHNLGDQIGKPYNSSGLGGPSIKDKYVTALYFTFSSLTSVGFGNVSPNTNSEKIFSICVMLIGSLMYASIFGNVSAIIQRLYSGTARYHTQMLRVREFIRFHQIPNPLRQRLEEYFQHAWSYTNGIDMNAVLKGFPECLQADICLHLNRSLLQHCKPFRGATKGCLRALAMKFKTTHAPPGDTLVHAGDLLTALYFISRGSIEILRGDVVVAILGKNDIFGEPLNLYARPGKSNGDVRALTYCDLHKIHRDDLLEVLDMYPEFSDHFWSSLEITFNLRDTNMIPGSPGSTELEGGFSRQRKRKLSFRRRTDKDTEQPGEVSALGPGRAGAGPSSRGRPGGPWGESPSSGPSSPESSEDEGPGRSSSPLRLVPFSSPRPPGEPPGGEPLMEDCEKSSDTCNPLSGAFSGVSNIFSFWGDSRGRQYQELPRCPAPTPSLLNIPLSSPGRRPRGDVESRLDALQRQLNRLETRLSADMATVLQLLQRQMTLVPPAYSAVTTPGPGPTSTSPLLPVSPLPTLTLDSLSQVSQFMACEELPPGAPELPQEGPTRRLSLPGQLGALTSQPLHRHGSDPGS
The experiment in a line: Effect on hERG potassium ion channel (CHO-hERG, manual patch clamp). The data set is classed as cell-based. On the procedure: A cell line CHO-hERG from ovary of Chinese hamster that stably expresses hERG potassium channel was used in this experiment. The cells were cultured in F12 complete medium containing 10% FBS, 1% antibiotics (G418), and 89 μg/mL hygromycin. The recovery medium was a F12 medium containing 10% FBS. Culture was performed at 37° C. and under 5% CO2.
The inhibitory activity of the compounds of the present invention in series gradient concentrations on the potassium channel in CHO-hERG was determined by manual patch clamp system.
(hERG is a cardiac potassium channel; its block is linked to QT prolongation.)

Each structure is given as a SMILES string. Bounds are passed on as bounds.

T1 sequence (P43220 24-463): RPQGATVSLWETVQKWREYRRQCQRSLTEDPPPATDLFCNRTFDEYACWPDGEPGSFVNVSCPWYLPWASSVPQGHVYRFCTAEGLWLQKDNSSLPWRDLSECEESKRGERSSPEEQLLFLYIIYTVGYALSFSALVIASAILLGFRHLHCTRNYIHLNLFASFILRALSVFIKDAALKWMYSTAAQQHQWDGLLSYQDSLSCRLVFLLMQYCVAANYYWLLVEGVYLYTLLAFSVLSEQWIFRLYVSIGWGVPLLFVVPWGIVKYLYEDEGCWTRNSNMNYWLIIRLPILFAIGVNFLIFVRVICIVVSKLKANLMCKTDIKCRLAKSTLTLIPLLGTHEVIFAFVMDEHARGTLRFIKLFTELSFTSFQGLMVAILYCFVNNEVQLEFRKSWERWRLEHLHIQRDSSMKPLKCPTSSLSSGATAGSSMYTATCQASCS

For `C[C@@H](c1nc2ccc(C(=O)O)cc2n1C[C@@H]1CCO1)N1CCC(c2cccc(OCc3cc(F)ccc3F)n2)CC1` [Example 5, 2-((S)-1-(4-(6-((2,5-difluorobenzyl)oxy)pyridin-2-yl)piperidin-1-yl)ethyl)-1-(((S)-oxetan-2-yl)methyl)-1H-benzo[d]imidazol-6-carboxylic acid], a half-maximal effect on human GLP-1 R (EC50) was put at 1.04 nM. Moreover, in data set [1], the F came out at 72.8%. Also, in data set [1] (iv, 1 mg/kg, i.v), the AUC(0-t) (usually exposure summed from dosing to a finite time, without extrapolation to infinity) came out at 5770 ng·h/mL; the maximum concentration (Cmax) – broadly, the maximum level reached in the sampled fluid or tissue – came out at 4730 ng/mL; the clearance (in general, the volume of plasma or blood freed of the substance per unit of time) was found to be 2.88 mL/min/kg; the half-life (commonly the time needed for the level to fall by half in the phase considered) was 3.87 h. Besides, in data set [1] (po, 5 mg/kg, p.o), the area under the curve AUC(0-t) was found to be 21000 ng·h/mL, the concentration peaked (Cmax) at 3470 ng/mL and the half-life is 2.76 h.

For `C[C@@H](c1nc2ccc(C(=O)O)cc2n1C[C@@H]1CCO1)N1CCC(c2cccc(OCc3ccc(C#N)cc3F)n2)CC1` [Example 2A, 2-((S)-1-(4-(6-((4-cyano-2-fluorobenzyl)oxy)pyridin-2-yl)piperidin-1-yl)ethyl)-1-(((S)-oxetan-2-yl)methyl)-1H-benzo[d]imidazol-6-carboxylic acid], the EC50 (in general, the concentration at which the effect is half-maximal) on human GLP-1 R was found to be 3.18 nM. The same molecule came in with a F in data set [1] of 63.5%. In data set [1] (iv, 1 mg/kg, i.v), the AUC(0-t) was 1250 ng·h/mL, the highest level (Cmax) was 2330 ng/mL, the clearance came to 13.3 mL/min/kg and the half-life is 0.71 h. In data set [1] (po, 5 mg/kg, p.o), this molecule had an exposure AUC(0-t) of 3970 ng·h/mL, a peak concentration (Cmax) of 1290 ng/mL and a half-life of 3.11 h.

On to `C[C@@H](c1nc2ccc(C(=O)O)cc2n1C[C@@H]1CCO1)N1CCN(c2cccc(OCc3ccc(C#N)cc3F)n2)CC1` [Example 20A, 2-((S)-1-(4-(6-((4-cyano-2-fluorobenzyl)oxy)pyridin-2-yl)piperazin-1-yl)ethyl)-1-(((S)-oxetan-2-yl)methyl)-1H-benzo[d]imidazol-6-carboxylic acid], for which the IC50 – broadly, the midpoint of a concentration-inhibition curve – in data set [2] was more than 30000 nM. This molecule also yielded an EC50 on human GLP-1 R of 4.66 nM. The F in data set [1] worked out at 46.4%. In data set [1] (iv, 1 mg/kg, i.v), this molecule gave an exposure AUC(0-t) of 539 ng·h/mL, a maximum concentration (Cmax) of 1290 ng/mL, a clearance of 30.7 mL/min/kg and a half-life of 0.31 h. In addition, in data set [1] (po, 5 mg/kg, p.o), the AUC(0-t) was determined as 1250 ng·h/mL, the highest level (Cmax) was 348 ng/mL and the half-life was 1.17 h.

For the molecule `C[C@@H](c1nc2ccc(C(=O)O)nc2n1C[C@@H]1CCO1)N1CCN(c2cccc(OCc3ccc(Cl)cc3F)n2)CC1` [Example 52A, 2-((S)-1-(4-(6-((4-chloro-2-fluorobenzyl)oxy)pyridin-2-yl)piperazin-1-yl)ethyl)-3-(((S)-oxetan-2-yl)methyl)-3H-imidazo[4,5-b]pyridin-5-carboxylic acid], a half-maximal effect on human GLP-1 R (EC50) was put at 2 nM. The F in data set [1] was determined as 76.6%. In data set [1] (iv, 1 mg/kg, i.v), this molecule showed an area under the curve AUC(0-t) of 1130 ng·h/mL, a maximum concentration (Cmax) of 2050 ng/mL, a clearance of 14.7 mL/min/kg and a half-life of 0.95 h. In data set [1] (po, 5 mg/kg, p.o), this molecule gave an AUC(0-t) of 4330 ng·h/mL, a peak concentration (Cmax) of 1160 ng/mL and a half-life of 2.77 h.

As to `C[C@@H](c1nc2ccc(C(=O)O)nc2n1C[C@@H]1CCO1)N1CCN(c2cccc(OCc3ccc(C#N)cc3F)n2)CC1` [Example 51A, 2-((S)-1-(4-(6-((4-cyano-2-fluorobenzyl)oxy)pyridin-2-yl)piperazin-1-yl)ethyl)-3-(((S)-oxetan-2-yl)methyl)-3H-imidazo[4,5-b]pyridin-5-carboxylic acid], at human GLP-1 R, the response was half-maximal at 2.28 nM (EC50). For the same molecule, the F in data set [1] is given as 34.3%. Further, in data set [1] (iv, 1 mg/kg, i.v), the AUC(0-t) is 613 ng·h/mL, the Cmax stood at 1990 ng/mL, the clearance amounted to 27.2 mL/min/kg and the half-life was 0.71 h. In addition, in data set [1] (po, 5 mg/kg, p.o), the AUC(0-t) was determined as 1050 ng·h/mL, the concentration peaked (Cmax) at 323 ng/mL and the half-life was 1.06 h.
